Read-outs that look alike come from different tables or passages of the source. Marks after values point to notes of the source that are not given here.
Key:
[1] = molecular target: T1, BSA (bovine serum albumin) (Bos taurus, UniProt P02769); test: Protein binding by ultrafiltration in 2% BSA Krebs buffer; assay type: in vitro ADME; details: 2% BSA Krebs-Henseleit buffer pH 7.4, 37° C.; slope of Scatchard plot
T1 construct: BSA (bovine serum albumin, fraction V, Sigma); purchased Sigma; host or cells: bovine serum (fraction V)
T1 sequence (P02769 25-607): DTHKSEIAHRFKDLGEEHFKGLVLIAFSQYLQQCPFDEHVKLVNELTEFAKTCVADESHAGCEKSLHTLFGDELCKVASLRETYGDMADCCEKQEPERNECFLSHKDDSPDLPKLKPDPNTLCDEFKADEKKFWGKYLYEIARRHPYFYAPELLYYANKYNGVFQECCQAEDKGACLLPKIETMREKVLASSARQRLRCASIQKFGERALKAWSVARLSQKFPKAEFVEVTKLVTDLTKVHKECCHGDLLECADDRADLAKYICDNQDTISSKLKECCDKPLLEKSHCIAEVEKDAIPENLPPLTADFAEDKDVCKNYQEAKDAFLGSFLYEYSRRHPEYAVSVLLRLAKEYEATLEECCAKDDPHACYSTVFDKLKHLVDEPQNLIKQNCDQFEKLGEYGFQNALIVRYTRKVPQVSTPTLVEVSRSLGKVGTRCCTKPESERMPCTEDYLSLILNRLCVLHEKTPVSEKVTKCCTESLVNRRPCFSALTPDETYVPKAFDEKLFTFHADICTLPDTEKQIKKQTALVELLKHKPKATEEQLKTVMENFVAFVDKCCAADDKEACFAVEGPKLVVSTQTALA
Procedure: These experiments were carried out in Krebs-Henseleit buffer containing 2% w/v BSA (pH 7.4) and incubated at 37° C. for 30 minutes.
A known concentration of the ethanolic (≲1%) aspirin analogue or diflunisal ester stock solution was added to the 2% BSA Krebs solution to make final concentrations of 125 μM, 250 μM and 500 μM.
The unbound fraction (fu) of parent drug and its hydrolysis product were investigated using ultra-filtration: A 1.0 mL aliquot sample (in triplicate) was placed in a ultrafiltration tube (MPS-1, micro-partition system, Amicon) and centrifuged at 3000 g for 10 minutes. The ultra-filtrate was then assayed for parent drug and its hydrolysis product by HPLC.
To eliminate possible errors caused by hydrolysis, identical samples were placed in normal tubes and subjected to the same procedure. This control group (also in triplicate) was used to adjust for the percentage of hydrolysis in the ultra-filtrate under the experimental conditions.
The fu was determined as the ratio of the free concentration to total concentration of solutes. The binding constant (K) was determined from the slope of a Scatchard plot using following equation:
[Db]/[D]=−K[Db]vK[Pt] (3)
where [Db] is the concentration of bound drug, [D] is the concentration of drug, [Pt] is the concentration of total protein, and v is the number of independent binding sites available. This equation is plotted as the ratio [Db]/[D] versus [Db] and in this way the binding constant (K) is determined from the slope while vK[Pt] is determined from the intercept (Martin, 1983).

[2] = In vitro non-enzymatic hydrolysis in Krebs-Henseleit buffer; assay type: physicochemical; details: for Hydrolysis rate constant (k): pH 7.4, 25° C., n=5; for half-life: pH 7.4, read-out: Half life (t1/2) (converted)
Method in brief: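 Derivatives dissolved in Krebs-Henseleit buffer, pH 7.4, 25±1° C, with no protein or 2% w/v BSA; solutions sonicated and centrifuged, supernatant sampled over time. First-order hydrolysis rate constant k derived from ester concentration vs time, and half-life calculated from k.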

[3] = system: in-situ perfused rat liver; test: In-situ rat liver perfusions, hepatic extraction (Example 4); assay type: in vitro ADME; details: hepatic extraction=1- hepatic availability (F)
Procedure: The hepatic availability (F) for the O-acyl esters of SA and DF was determined using a once through in-situ perfused rat liver preparation (Mellick and Roberts, 1996, J Pharm Pharmacol 48:738-743). Liver was perfused with protein-free Krebs-Henseleit buffer at 30 mL/min for aspirin analogues and with Krebs-Henseleit buffer containing 2% BSA for diflunisal esters studies. Since the solubilities of the diflunisal esters in protein-free media were very low, 2% BSA were used to help to solubilize these compounds. Briefly, 50 μL of a saturated solution of the particular O-acyl SA or DF in Krebs-Henseleit buffer was injected as a bolus into the portal vein cannula. Perfusate outflow samples have collected via a fraction collector over 3 min. 100 μL of these samples was assayed by HPLC to determine the residual concentration of presented ester and the quantity of phenolic metabolite (SA or DF) collected from the perfused liver. The HPLC assay was a modification of the method used by Owen et al. (1987, J Chrom B Biomed Appl 416 293-302) and Rumble et al. (1981, J Chrom 225 252-260).
The hepatic availability (F) was calculated from the ratio of the area under the first moment curve, i.e., outflow concentration time-time profile to the area under the curve for the salicylate phenolic esters, with the assistance of the Moments Calculator 2.2 program for Macintosh computer developed by Robert Purves (1994, J Pharm Sci 83:202-205).

[4] = system: OH. generated from Fenton's reaction; test: Luminol-dependent chemiluminescence induced by Fenton's reagent; assay type: biochemical; set-up: unit of the concentration uncertain; details: F: CL induced by Fenton's reagent, n=3
Procedure: CL was measured with a luminometer (Model 1250; LKB Wallac, Finland) and recorded in millivolts (Cheung et al., 1984, supra).
Fenton's reagent (FeSO4 and H2O2) was used as a standard reaction mixture for the generation of OH. (Lai and Piette, 1979, Tetrahedron Lett. 775-778):
Fe^+++H2O2→Fe^++++OH.+OH (1)
The initial reaction mixture consisted of 20 μL of 3.8 mM FeSO4.7H2O, 20 μL of 5 mg/mL luminol (Sigma), and 2 mL of 1 mM phosphate buffer in a 3 mL polystyrene cuvette. Twenty microlitres of 320 mM H2O2 was added to initiate the Fenton's reaction.
A known concentration of the ethanolic (≲1%) aspirin analogue or diflunisal ester's stock solution was added to the 1 mM phosphate buffer to prepare solutions with a final concentration of 50 μM, 250 μM or 500 μM. Twenty microlitres of these test samples was added onto the cuvette which contained the initial reaction mixture. H2O2 was added to induce CL reaction. The luminol-dependent CL response was recorded in mV by a potentiometric recorder.
CL measurements were always done in triplicate and Student's t-test used to assess the statistical significance of the difference between measurements.

[5] = molecular target: T1, BSA (bovine serum albumin); details: 2% BSA; Hung et al., 1996; cited from earlier work
[6] = Krebs-Henseleit buffer 0% BSA, U = Undetectable
[7] = 2% BSA in Krebs-Henseleit buffer as perfusate
[8] = 0.5 (unit uncertain) compound, U = undetectable
[9] = bovine, Krebs-Henseleit buffer with 2% w/v BSA
[10] = protein-free Krebs-Henseleit buffer, Krebs-Henseleit buffer 0% BSA, first half life, t1/2=0.693/k, U = Undetectable
[11] = protein-free Krebs-Henseleit buffer as perfusate

Protein binding constant (K) [1] [L/mol]	Hydrolysis rate constant (k) [2, 6] [hour^1]	Hydrolysis rate constant (k) ([2]; Krebs-Henseleit buffer 2% BSA) [hour^1]	Hepatic extraction [3, 7]	half-life [2, 9] [h]	half-life [2, 10] [h]	Hepatic extraction [3, 11]	Compound	CL inhibition (%) [4, 8]	CL inhibition (%) ([4]; 2.5 (unit uncertain) compound)	CL inhibition (%) ([4]; 5 (unit uncertain) compound)	fub (unbound fraction) [5]
2077	0.0378 ± 0.0105	0.0238 ± 0.0095	0.49	–	–	–	CC(=O)Oc1ccc(-c2ccc(F)cc2F)cc1C(=O)O [Compound C2D, acetyldiflunisal]	21.3 ± 5.0%	49.8 ± 3.9	91.2 ± 0.6	0.27 ± 0.02
2365	–	0.0138 ± 0.0058	0.66	–	–	–	CCCC(=O)Oc1ccc(-c2ccc(F)cc2F)cc1C(=O)O [Compound C4D, n-butanoyldiflunisal]	16.9 ± 4.9%	65.1 ± 2.1	93.7 ± 0.5	0.14 ± 0.01
–	0.0049 ± 0.0037	0.0031 ± 0.0015	–	224	141	0.60	CCCC(=O)Oc1ccccc1C(=O)O [Compound C4SA, n-butanoylsalicylic acid]	–	41.3 ± 7.5	84.2 ± 1.4	–
2707	–	0.0113 ± 0.0037	0.62	–	–	–	CCCCC(=O)Oc1ccc(-c2ccc(F)cc2F)cc1C(=O)O [Compound C5D, n-pentanoyldiflunisal]	22.2 ± 7.1%	58.2 ± 2.5	88.8 ± 0.9	0.12 ± 0.01
1525	0.0061 ± 0.0027	0.0028 ± 0.0013	–	248	114	0.74	CCCCC(=O)Oc1ccccc1C(=O)O [Compound C5SA, n-pentanoylsalicylic acid]	0.4 ± 0.1^e %	45.9 ± 5.0	95.6 ± 0.4	–
2995	–	0.0056 ± 0.0042	0.62	–	–	–	CCCCCC(=O)Oc1ccc(-c2ccc(F)cc2F)cc1C(=O)O [Compound C6D, n-hexanoyldiflunisal]	20.5 ± 4.6%	54.8 ± 2.4	92.7 ± 3.1	0.08 ± 0.00
2071	0.0059 ± 0.0023	0.0021 ± 0.0017	–	330	117	0.98	CCCCCC(=O)Oc1ccccc1C(=O)O [Compound C6SA, n-hexanoylsalicylic acid]	0.2 ± 0.1%	56.0 ± 3.7	96.0 ± 2.1	–

Compound	Protein binding constant (K) [1] [L/mol]	Hydrolysis rate constant (k) [2, 6] [hour^1]	Hydrolysis rate constant (k) ([2]; Krebs-Henseleit buffer 2% BSA) [hour^1]	Hepatic extraction [3, 7]	half-life [2, 9] [h]	half-life [2, 10] [h]	Hepatic extraction [3, 11]	CL inhibition (%) [4, 8]	CL inhibition (%) ([4]; 2.5 (unit uncertain) compound)	CL inhibition (%) ([4]; 5 (unit uncertain) compound)	fub (unbound fraction) [5]
O=C(O)c1cc(-c2ccc(F)cc2F)ccc1O [DF, 2′,4′-difluoro-4-hydroxy-3-biphenylcarboxylic acid, reference compound]	–	–	–	0.38	–	–	–	19.2 ± 6.9%	50.6 ± 2.8	92.1 ± 0.6	–
O-acetylsalicylic acid [Compound C2SA, reference compound]	192	–	–	–	–	–	0.15	–	43.3 ± 5.0	97.6 ± 0.5	–
